# Test results reported in patent US20110293745A1, “AURORA KINASE INHIBITORS” (SUNESIS PHARMACEUTICALS, INC., priority 2008, published 2011).
# Where two headings read alike, the source gives them in different places.
# What was measured:
# [1] = Dynamic Vapor Sorption (DVS); type: physicochemical; conditions: for DVS Result (hygroscopicity): Dynamic Vapor Sorption of crystalline form of Compound 1
# Experimental: DVS experiments were carried out on all available forms by first drying the sample at 0% RH and 25° C. until an equilibrium weight was reached or a maximum of four hours. The sample was then subjected to an isothermal (25° C.) adsorption scan from 10 to 90% RH in steps of 10% RH. The sample was allowed to equilibrate to an asymptotic weight at each point for a maximum of four hours. Following adsorption, a desorption scan from […] to 0% RH (at 25° C.) was run in steps of −10% RH again allowing a maximum of four hours for equilibration to an asymptotic weight. The sample was then dried for two hours at 80° C. and the resulting solid analyzed by XRPD.
# HCT 116 p53+/+ = experiment: In vitro combination, HCS cell count assay (CI50); type: cell-based, human; conditions: HCT 116 p53+/+ and p53−/−; dependent on ratios or p53 status
# Experimental: A combination index compares the concentration of compounds dosed in combination required for a given fractional effect to the concentration of single agent compound required to give the same fractional affect. In this application, the fractional effect is EC50.
# The equation above represents the theoretical additive response for two mutually exclusive drugs, and takes into consideration the ratio at which the two compounds are dosed. […].
# […]. High content cell imaging and a cell proliferation assay were used to measure the anti-proliferative effects of the compounds.
# HCT 116 cells transfected with p53 RNAi or a control vector were cultured in DMEM, 10% FBS, and 1× antibiotic/antimycotic. Cells were plated in growth medium in black/clear Falcon® 384-well plates. Cells were treated to assess the effects of p53 status, drug dose ratios, and dose schedules. […]. […] All procedures were performed by a Tecan robotic platform.
# After overnight growth, cells were treated with compound for a total of 72 hours and incubated at 37° C., 5% CO2. Cells were fixed in 4% formaldehyde and stained with 1:4000 dilution of 10 mg/mL Hoechst 33342. HCS images were captured and data analyzed using the Target Activation application, object count per field parameter, on the ArrayScan VTI instrument (Cellomics, Inc.).
# [2] = tested on: HCT 116 p53−/− (p53 RNAi); experiment: In vitro combination, HCS cell count assay (CI50); type: cell-based, human; conditions: p53−/− HCT 116 cells; high doses of vincristine
# Experimental: Cells were plated in growth medium in black/clear Falcon® 384-well plates. Cells were treated to assess the effects of p53 status, drug dose ratios, and dose schedules. […] All procedures were performed by a Tecan robotic platform.
# [3] = Humidity-controlled form conversion; type: physicochemical
# Experimental: The samples were monitored each week for a total duration of five weeks. Each sample was tested by XRPD, DSC, TGA, and Karl Fisher analysis.
# [4] = Experimental: The solvents were chosen based on differences in polarity and functionality and on their classification according to the International Conference on Harmonization (ICH), with preference given to class II and class III solvents. After each addition of solvent, the vials were visually inspected to assess dissolution and further heated to 55° C. to ensure dissolution.
# [5] = Reslurry of Form A in 20 solvents; type: physicochemical; conditions: THF, EtOAc, MeCN, acetone, MEK, IPA, dioxane, MTBE, IPAc, heptane, CH2Cl2, toluene; room temperature, two weeks
# Experimental: Various amounts of solvents were added to each vial to form slurries which were allowed to stir at room temperature for two weeks. The slurries were then filtered with the help of a gentle nitrogen flow. The samples were further dried in vacuo at room temperature for two hours, except the sample from formamide which was dried in vacuo for about 20 hours.
# After two weeks, the samples were filtered and then analyzed by XRPD, DSC, and TGA. Three new forms were found from the slurry studies. These Forms I, K, and L were generated from AcOH, NMP, and DMF, respectively. The slurry samples from other solvents afforded results consistent with the single solvent recrystallizations. […] Forms D, E, G, and H were generated from reslurry experiments in DMA, formamide, methanol, and ethanol, respectively.
smiles,measurement,setting,value
CS(=O)(=O)O.O=C(Nc1cccc(Cl)c1)Nc1ncc(CCNc2ncnc3ccsc23)s1 [E],DVS Result (water uptake),[1]; at 90% RH,"change, 8.0 wt wt %"
CC[C@]1(O)C[C@H]2CN(CCc3c([nH]c4ccccc34)[C@@](C(=O)OC)(c3cc4c(cc3OC)N(C=O)[C@H]3[C@@](O)(C(=O)OC)[C@H](OC(C)=O)[C@]5(CC)C=CCN6CC[C@]43[C@@H]65)C2)C1 [vincristine],interaction with Compound 1 in cell count assay,HCT 116 p53+/+,conditional synergies
same,"interaction with Compound 1, co-dosed",[2],Statistically significant synergy
Nc1ccn([C@@H]2O[C@H](CO)[C@@H](O)C2(F)F)c(=O)n1 [gemcitabine],interaction with Compound 1 in cell count assay,HCT 116 p53+/+,conditional synergies
CS(=O)(=O)O.O=C(Nc1cccc(Cl)c1)Nc1ncc(CCNc2ncnc3ccsc23)s1 [G],DVS Result (hygroscopicity),[1],"change, low"
CS(=O)(=O)O.O=C(Nc1cccc(Cl)c1)Nc1ncc(CCNc2ncnc3ccsc23)s1 [A],KF,"[3]; 0% RH, week 1",0.17 Wt % H2O
same,TGA Loss,"[3]; 0% RH, week 1",0.0 Wt %
same,KF,"[3]; 0% RH, week 2",<0.1 Wt % H2O
same,TGA Loss,"[3]; 0% RH, week 2",0.0 Wt %
same,KF,"[3]; 0% RH, week 3",0.11 Wt % H2O
same,TGA Loss,"[3]; 0% RH, week 3",0.0 Wt %
same,KF,"[3]; 0% RH, week 4",<0.1 Wt % H2O
same,TGA Loss,"[3]; 0% RH, week 4",0.0 Wt %
same,KF,"[3]; 0% RH, week 5",0.1 Wt % H2O
same,TGA Loss,"[3]; 0% RH, week 5",0.0 Wt %
same,KF,"[3]; 20% RH, week 1",0.16 Wt % H2O
same,TGA Loss,"[3]; 20% RH, week 1",0.0 Wt %
same,KF,"[3]; 20% RH, week 2",0.12 Wt % H2O
same,TGA Loss,"[3]; 20% RH, week 2",0.0 Wt %
same,KF,"[3]; 20% RH, week 3",0.11 Wt % H2O
same,TGA Loss,"[3]; 20% RH, week 3",0.0 Wt %
same,KF,"[3]; 20% RH, week 4",<0.1 Wt % H2O
same,TGA Loss,"[3]; 20% RH, week 4",0.0 Wt %
same,KF,"[3]; 20% RH, week 5",0.2 Wt % H2O
same,TGA Loss,"[3]; 20% RH, week 5",0.0 Wt %
same,KF,"[3]; 52% RH, week 1",0.29 Wt % H2O
same,TGA Loss,"[3]; 52% RH, week 1",0.0 Wt %
same,KF,"[3]; 52% RH, week 2",0.16 Wt % H2O
same,TGA Loss,"[3]; 52% RH, week 2",0.0 Wt %
same,KF,"[3]; 52% RH, week 3",0.11 Wt % H2O
same,TGA Loss,"[3]; 52% RH, week 3",0.0 Wt %
same,KF,"[3]; 75% RH, week 1",0.12 Wt % H2O
same,TGA Loss,"[3]; 75% RH, week 1",0.0 Wt %
same,KF,"[3]; 75% RH, week 2",0.13 Wt % H2O
same,TGA Loss,"[3]; 75% RH, week 2",0.0 Wt %
same,KF,"[3]; 75% RH, week 3",0.19 Wt % H2O
same,TGA Loss,"[3]; 75% RH, week 3",0.0 Wt %
same,KF,"[3]; 75% RH, week 4",<0.1 Wt % H2O
same,TGA Loss,"[3]; 75% RH, week 4",0.0 Wt %
same,KF,"[3]; 75% RH, week 5",0.3 Wt % H2O
same,TGA Loss,"[3]; 75% RH, week 5",0.0 Wt %
same,KF,"[3]; 95% RH, week 1",1.5 Wt % H2O
same,TGA Loss,"[3]; 95% RH, week 1",0.1 Wt %
same,KF,"[3]; 95% RH, week 2",3.2 Wt % H2O
same,KF,"[3]; 95% RH, week 3",3.7 Wt % H2O
same,KF,"[3]; 95% RH, week 4",3.5 Wt % H2O
same,TGA Loss,"[3]; 95% RH, week 4",1.5 Wt %
same,KF,"[3]; 95% RH, week 5",3.9 Wt % H2O
same,KF,"[3]; starting point, week 0",0.07 Wt % H2O
same,TGA Loss,"[3]; starting point, week 0",0.0 Wt %
CS(=O)(=O)O.O=C(Nc1cccc(Cl)c1)Nc1ncc(CCNc2ncnc3ccsc23)s1 [B],DVS Result (hygroscopicity),[1],"change, low"
same,KF,"[3]; 0% RH, week 1",1.4 Wt % H2O
same,KF,"[3]; 0% RH, week 2",3.4 Wt % H2O
same,KF,"[3]; 0% RH, week 3",3.6 Wt % H2O
same,KF,"[3]; 0% RH, week 4",3.0 Wt % H2O
same,KF,"[3]; 0% RH, week 5",3.4 Wt % H2O
same,KF,"[3]; 20% RH, week 1",3.3 Wt % H2O
same,KF,"[3]; 20% RH, week 2",3.7 Wt % H2O
same,KF,"[3]; 20% RH, week 3",3.6 Wt % H2O
same,KF,"[3]; 20% RH, week 4",3.4 Wt % H2O
same,KF,"[3]; 20% RH, week 5",3.5 Wt % H2O
same,KF,"[3]; 52% RH, week 1",3.0 Wt % H2O
same,KF,"[3]; 52% RH, week 2",3.6 Wt % H2O
same,KF,"[3]; 52% RH, week 3",3.7 Wt % H2O
same,KF,"[3]; 52% RH, week 4",3.3 Wt % H2O
same,KF,"[3]; 52% RH, week 5",3.6 Wt % H2O
same,KF,"[3]; 75% RH, week 1",3.4 Wt % H2O
same,KF,"[3]; 75% RH, week 2",3.4 Wt % H2O
same,KF,"[3]; 75% RH, week 3",2.4 Wt % H2O
same,KF,"[3]; 75% RH, week 4",3.3 Wt % H2O
same,KF,"[3]; 95% RH, week 1",3.2 Wt % H2O
same,KF,"[3]; 95% RH, week 2",3.5 Wt % H2O
same,KF,"[3]; 95% RH, week 3",4.6 Wt % H2O
same,TGA Loss,"[3]; 95% RH, week 3",3.2 Wt %
same,KF,"[3]; 95% RH, week 4",3.7 Wt % H2O
same,KF,"[3]; 95% RH, week 5",4.7 Wt % H2O
same,KF,"[3]; starting point, week 0",3.0 Wt % H2O
CC(=O)O[C@@]12CO[C@@H]1C[C@H](O)[C@@]1(C)C(=O)[C@H](O)C3=C(C)[C@@H](OC(=O)[C@H](O)[C@@H](NC(=O)OC(C)(C)C)c4ccccc4)C[C@@](O)([C@@H](OC(=O)c4ccccc4)[C@H]21)C3(C)C [docetaxel],interaction with Compound 1 in cell count assay,HCT 116 p53+/+,conditional synergies
CS(=O)(=O)O.O=C(Nc1cccc(Cl)c1)Nc1ncc(CCNc2ncnc3ccsc23)s1 [Form A],Approximate Solubility Conc.,"[4]; Solvent AcOH, Temp RT",>17000 µg/mL
same,Soluble,"[4]; Solvent AcOH, Temp RT",Yes
same,Approximate Solubility Conc.,"[4]; Solvent Acetone, Temp 55",<370 µg/mL
same,Soluble,"[4]; Solvent Acetone, Temp 55",No
same,Approximate Solubility Conc.,"[4]; Solvent DCM, Temp 55",<430 µg/mL
same,Soluble,"[4]; Solvent DCM, Temp 55",No
same,Approximate Solubility Conc.,"[4]; Solvent DMA, Temp RT",>28000 µg/mL
same,Soluble,"[4]; Solvent DMA, Temp RT",Yes
same,Approximate Solubility Conc.,"[4]; Solvent DMF, Temp RT",>9000 µg/mL
same,Soluble,"[4]; Solvent DMF, Temp RT",Yes
same,Approximate Solubility Conc.,"[4]; Solvent Dioxane, Temp 55",<280 µg/mL
same,Soluble,"[4]; Solvent Dioxane, Temp 55",No
same,Approximate Solubility Conc.,"[4]; Solvent EtOAc, Temp 55",<250 µg/mL
same,Soluble,"[4]; Solvent EtOAc, Temp 55",No
same,Approximate Solubility Conc.,"[4]; Solvent EtOH, Temp 55",~630 µg/mL
same,Soluble,"[4]; Solvent EtOH, Temp 55",Yes
same,Approximate Solubility Conc.,"[4]; Solvent Formamide, Temp RT",>16000 µg/mL
same,Soluble,"[4]; Solvent Formamide, Temp RT",Yes
same,Approximate Solubility Conc.,"[4]; Solvent Heptane, Temp 55",<430 µg/mL
same,Soluble,"[4]; Solvent Heptane, Temp 55",No
same,Approximate Solubility Conc.,"[4]; Solvent IPA, Temp 55",<300 µg/mL
same,Soluble,"[4]; Solvent IPA, Temp 55",Partially
same,Approximate Solubility Conc.,"[4]; Solvent IPAc, Temp 55",<400 µg/mL
same,Soluble,"[4]; Solvent IPAc, Temp 55",No
same,Approximate Solubility Conc.,"[4]; Solvent MEK, Temp 55",<480 µg/mL
same,Soluble,"[4]; Solvent MEK, Temp 55",No
same,Approximate Solubility Conc.,"[4]; Solvent MTBE, Temp 55",<200 µg/mL
same,Soluble,"[4]; Solvent MTBE, Temp 55",No
same,Approximate Solubility Conc.,"[4]; Solvent MeCN, Temp 55",<420 µg/mL
same,Soluble,"[4]; Solvent MeCN, Temp 55",No
same,Approximate Solubility Conc.,"[4]; Solvent MeOH, Temp 55",~700 µg/mL
same,Soluble,"[4]; Solvent MeOH, Temp 55",Yes
same,Approximate Solubility Conc.,"[4]; Solvent NMP, Temp RT",>14000 µg/mL
same,Soluble,"[4]; Solvent NMP, Temp RT",Yes
same,Approximate Solubility Conc.,"[4]; Solvent THF, Temp 55",<320 µg/mL
same,Soluble,"[4]; Solvent THF, Temp 55",No
same,Approximate Solubility Conc.,"[4]; Solvent Toluene, Temp 55",<330 µg/mL
same,Soluble,"[4]; Solvent Toluene, Temp 55",No
same,Approximate Solubility Conc.,"[4]; Solvent Water, Temp 55",<280 µg/mL
same,Soluble,"[4]; Solvent Water, Temp 55",No
same,solubility,"[4]; in DMF, NMP, DMA, formamide, AcOH",soluble
same,solubility,"[4]; in THF, EtOAc, MeCN, acetone, MEK, IPA, water, dioxane, MTBE, IPAc, heptane, CH2Cl2 and toluene",poor solubility
same,solubility,[4]; in methanol and ethanol,sparingly soluble
same,form conversion under humidity,"[3]; 0, 25, 52, and 75% RH, five weeks",No form conversion
same,form conversion under humidity,"[3]; 95% RH, two weeks",converted to Form B
same,form after reslurry,[5],remained unchanged
CS(=O)(=O)O.O=C(Nc1cccc(Cl)c1)Nc1ncc(CCNc2ncnc3ccsc23)s1 [Form B],form conversion under humidity,"[3]; all humidity chambers, five weeks",No form conversion
